The values below come from article PMC11003450, “Structure-property relationships of fluorinated carboxylic acid bioisosteres” (Bioorganic & medicinal chemistry letters, 2023).

Where two headings read alike, the source gives them in different places. Where only a bound is given, the exact number is not on record here.

A short description of data set [1]: PAMPA (parallel artificial membrane permeability assay, ran by Analiza). It counts as in vitro ADME. The conditions noted are these: for Papp: PAMPA. The text has this: In this work, in order to compare the properties of fluorinated carboxylic acid surrogates with those of other commonly used nonfluorinated bioisosteres, we present the design and synthesis of a focused set of matched molecular pairs (MMPs), which include examples of substituted alcohols and phenols featuring one or more fluorine atoms, and the characterization of these compounds for key physicochemical properties such as acidity (pKa), lipophilicity (logD7.4 and permeability (logPapp) in a parallel artificial membrane permeability assay (PAMPA). The data presented allow for an assessment of the impact of incorporation of fluorine on the physicochemical properties of carboxylic acid surrogates.
(The PAMPA barrier holds no transporters, so it reflects passive diffusion.)

A short description of data set [2]: pKa by potentiometric titration (Sirius T3).
Data set [3] is described as follows: logD7.4 by potentiometric titration (Sirius T3). To be noted: n-octanol/aqueous buffer.
The conditions of data set [4]: supplement csv; previously described phenylpropionic acid derivatives A-Y; ref [3]-[5]; cited from earlier work.
For data set [5] the following is noted: supplement csv; previously described derivatives A-Y; ref [3]-[5]; cited from earlier work.
[6] abbreviates: class by Pe, read-out: PAMPA Permeability.
The mark [7] stands for this setting: pKa (anilinium/aniline), anilinium/aniline pKa, Table 1.
Setting [8] is: pKa, acidic group (carboxylic acid, alcohol or phenol), Table 1.
Setting [9] is: pH 7.4, logD7.4, n-octanol / aqueous buffer pH 7.4, Table 1.
Where [10] appears, read: pH 7.4, logD7.4, supplement csv, compounds 1, 2, 3-10.
The mark [11] stands for this setting: read-out: PAMPA Pe (effective permeability).
[12] abbreviates: difference between experimental and calculated pKa, experimental vs ChemAxon.
[13] abbreviates: pKa (anilinium/aniline), supplement csv, first value of cell, anilinium/aniline.

On to `O=C(O)CCc1ccccc1` [Compound 1], for which the Papp in data set [1] (setting [6]) was over 1.5 ×10⁻⁶ cm/s.
As a reminder, the pKa is the pH at which an ionisable group is half protonated. One may read the logD as the decadic logarithm of the distribution of all forms, ionised or not, between an organic phase and buffer at a given pH. High values mean a more lipophilic compound, low ones a more hydrophilic compound. In the case of `Nc1ccc(CCC(=O)O)cc1` [Compound 2], in data set [1], the “PAMPA % retention (membrane retention)” value is reported as 0.05%. In data set [1] (setting [6]), the Papp was under 1.5 ×10⁻⁶ cm/s. The pKa in data set [2] (setting [7]) came to 5.17; in data set [2] (setting [8]) it was 4.12. Moreover, the logD in data set [3] (setting [9]) and in data set [3] (setting [10]) was -2.13 in each case.
In the case of `Nc1ccc(CCC(O)(C(F)(F)F)C(F)(F)F)cc1` [Compound 3], the “PAMPA % retention (membrane retention)” value in data set [1] stood at 0.171%. Also, the Papp was over 1.5 ×10⁻⁶ cm/s in data set [1] (setting [6]) and 12 ×10⁻⁶ cm/s in data set [1] (setting [11]). Besides, the pKa in data set [2] (setting [12]) was 1 to 1.7; in data set [2] (setting [7]), 4.06; in data set [2] (setting [13]) it was 4.88; in data set [2] (setting [8]), 7.96; in data set [2] (pKa, supplement csv, acidic group, compounds 1, 2, 3-10), 9.38. For the same molecule, the logD amounted to 3.04 in data set [3] (setting [9]) and 3.14 in data set [3] (setting [10]).
Take `Nc1ccc(CCC(O)(C(F)F)C(F)F)cc1` [Compound 4]: the “PAMPA % retention (membrane retention)” value in data set [1] is on record as 0.02%. Further, the Papp was over 1.5 ×10⁻⁶ cm/s in data set [1] (setting [6]) and 10.1 ×10⁻⁶ cm/s in data set [1] (setting [11]). Further, the figures for the pKa in data set [2] (setting [12]), in data set [2] (setting [7]) and in data set [2] (setting [8]) were 1 to 1.7, 4.79 and over 12, respectively. The logD in data set [3] (setting [9]) and in data set [3] (setting [10]) was 1.46 throughout.
With `Nc1ccc(CCC(O)C(F)(F)F)cc1` (centres unmarked) [Compound 5], the Papp is over 1.5 ×10⁻⁶ cm/s in data set [1] (setting [6]) and 11.7 ×10⁻⁶ cm/s in data set [1] (setting [11]). For the same molecule, the pKa in data set [2] (setting [7]) amounted to 4.72; in data set [2] (setting [13]), 4.9; in data set [2] (setting [8]) it was 11.7. Also, the logD in data set [3] (setting [9]) and in data set [3] (setting [10]) was 1.83 in each case.
With `Nc1ccc(CCC(O)C(F)F)cc1` (centres unmarked) [Compound 6], the “PAMPA % retention (membrane retention)” value in data set [1] worked out at 0.015%. In addition, the Papp in data set [1] (setting [6]) is over 1.5 ×10⁻⁶ cm/s; in data set [1] (setting [11]) it was 10.2 ×10⁻⁶ cm/s. The values for the pKa in data set [2] (setting [7]) and in data set [2] (setting [8]) were 4.87 and over 12, respectively. The logD in data set [3] (setting [9]) and in data set [3] (setting [10]) was 0.92 throughout.
For `Nc1ccc(Cc2cccc(O)c2C(F)(F)F)cc1` [Compound 7], the “PAMPA % retention (membrane retention)” value in data set [1] was 0.195%. The results for the Papp in data set [1] (setting [6]) and in data set [1] (setting [11]) were over 1.5 ×10⁻⁶ cm/s and 13.8 ×10⁻⁶ cm/s, respectively. Moreover, the pKa in data set [2] (setting [7]) was 4.69; in data set [2] (setting [8]), 8.85. Further, the pH-dependent lipophilicity (logD) in data set [3] (setting [9]) and in data set [3] (setting [10]) was 3.17 in each case.
With `Nc1ccc(Cc2cccc(O)c2OC(F)(F)F)cc1` [Compound 8], in data set [1], the “PAMPA % retention (membrane retention)” value is on record as 0.36%. For the same molecule, the Papp in data set [1] (setting [6]) is over 1.5 ×10⁻⁶ cm/s; in data set [1] (setting [11]), 8.63 ×10⁻⁶ cm/s. Moreover, the pKa in data set [2] (setting [7]) was 4.58; in data set [2] (setting [8]), 9.67. The logD in data set [3] (setting [9]) and in data set [3] (setting [10]) was 2.29 in each case.
As to `Nc1ccc(Cc2cccc(O)c2SC(F)(F)F)cc1` [Compound 9], the figures for the Papp in data set [1] (setting [6]) and in data set [1] (setting [11]) were over 1.5 ×10⁻⁶ cm/s and 7.28 ×10⁻⁶ cm/s, respectively. Moreover, the pKa in data set [2] (setting [7]) worked out at 4.24; in data set [2] (setting [8]), 9.51. In addition, the logD in data set [3] (setting [9]) and in data set [3] (setting [10]) was 2.72 in each case.
On to `Nc1ccc(Cc2cccc(O)c2[S+]([O-])C(F)(F)F)cc1` (centres unmarked) [Compound 10], for which the “PAMPA % retention (membrane retention)” value in data set [1] is reported as 0.24%. Moreover, the figures for the Papp in data set [1] (setting [6]) and in data set [1] (setting [11]) were over 1.5 ×10⁻⁶ cm/s and 10.5 ×10⁻⁶ cm/s, respectively. Besides, the values for the pKa in data set [2] (setting [7]) and in data set [2] (setting [8]) were 4.21 and 7.93, respectively. The values for the logD in data set [3] (setting [9]) and in data set [3] (setting [10]) were 1.96 and 2, respectively.
On to `Oc1cccc(Cc2ccccc2)c1C(F)(F)F` [Compound 32], for which the pKa amounted to 0.46 in data set [2] (difference in Δ pKa between 32 and 7, Δ = isostere minus corresponding -COOH, 32 vs matched pair 7); 8.91 in data set [2] (setting [8]). Besides, the logD in data set [3] (setting [9]) was 4.29.
On to `CN(C)S(=O)(=O)NC1(CCc2ccccc2)CS(=O)(=O)C1` [Compound H18], for which the logD7.4 in data set [4] is recorded as 1.82. Also, the pKa in data set [5] is 9.58.
With `CS(=O)(=O)Nc1cc(-c2ccccc2)on1` [Compound H19], the logD7.4 in data set [4] is recorded as -0.42. For the same molecule, in data set [5], the pKa is reported as 5.22.
As for `O=S(=O)(Nc1cc(-c2ccccc2)on1)c1ccccc1` [Compound H20], the logD7.4 in data set [4] is reported as 0.99. Moreover, in data set [5], the pKa is reported as 6.62.
`CN(C)S(=O)(=O)Nc1cc(-c2ccccc2)on1` [Compound H21]: the logD7.4 in data set [4] is on record as 0.42. In data set [5], the pKa was 5.62.
Turning to `CS(=O)(=O)Nc1cn(-c2ccccc2)nn1` [Compound H22], the logD7.4 in data set [4] is listed as 0.06. Further, in data set [5], the pKa was 6.34.
Take `O=S(=O)(Nc1cn(-c2ccccc2)nn1)c1ccccc1` [Compound H23]: in data set [4], the logD7.4 is on record as 1.06. Also, the pKa in data set [5] is given as 5.93.
Regarding `CN(C)S(=O)(=O)Nc1cn(-c2ccccc2)nn1` [Compound H24], the logD7.4 in data set [4] is 0.69. The pKa in data set [5] was 6.42.
As for `O=C1C=C(O)CC1Cc1ccccc1` (centres unmarked) [Compound T1], in data set [4], the logD7.4 is -0.7. Further, the pKa in data set [5] was 4.01.
Turning to `CC1=C(O)C(Cc2ccccc2)CC1=O` (centres unmarked) [Compound T2], the logD7.4 in data set [4] is -0.33. The pKa in data set [5] is 4.47.
With `O=C1CCC(O)=C1Cc1ccccc1` [Compound T3], the logD7.4 in data set [4] was -0.6. The pKa in data set [5] was 4.44.
On to `Oc1ccccc1SCc1ccccc1` [Compound W3], for which the logD7.4 in data set [4] is 3.78. For the same molecule, in data set [5], the pKa is reported as 9.06.
In the case of `CS(=O)(=O)NC(=O)NCc1ccccc1` [I], the logD7.4 in data set [4] was -1.19. Further, the pKa in data set [5] is 5.04.
`c1ccc(CCc2nnn[nH]2)cc1` [K]: in data set [4], the logD7.4 is reported as -0.36. The pKa in data set [5] is on record as 5.09.
